In test [1] the test system is halitosis subjects. The experiment in a line: Organoleptic assessment of subjects' saliva. Type of test: in vivo, human. Conditions: three recalled subjects; 3-day CHX regimen only; seventh day; scale of 0-5. The source says:
Sixty-five subjects were screened for volatile sulphur compound (VSC) breath readings by halimeter (Interscan Corp., Chatsworth, Calif.). VSC readings in persons with normal breath are typically in the range of 80-150 ppb. At levels of 200-300 ppb oral malodor is noticeable by an observer standing close to the patient. At 350-400 ppb, the odour is noticeable by an observer standing several feet away from the patient. Those subjects with breath scores of greater than 200 ppb on two separate visits were recruited for the study (n=13). Each signed an Informed Consent under a protocol approved by the Otago Ethics Committee. Subject's upon their second positive visit undertook a mechanical and chemical treatment of their mouths at the laboratory. […]
Fresh saliva samples and tongue swabs were tested for N-benzoyl-DL-arginine-2-naphthylamide (BANA) hydrolysis (BANAMet ILC, Ann Arbor, Mich.), since positive scores by the BANA test have previously been associated with the presence of malodour-forming enzyme activities of certain oral bacterial species (1, 3). […] The samples were graded according to the same criteria used to assess breath air of halitosis sufferers (7), using a scale of 0-5, with 0 equating to no odour detected and 5 the most severe.

The test system of test [2] is halitosis subjects. The experiment in a line: Volatile sulphur compound (VSC) breath readings by halimeter in halitosis subjects. It is filed as in vivo, human. Conditions: three recalled subjects. An excerpt:
Sixty-five subjects were screened for volatile sulphur compound (VSC) breath readings by halimeter (Interscan Corp., Chatsworth, Calif.). VSC readings in persons with normal breath are typically in the range of 80-150 ppb. At levels of 200-300 ppb oral malodor is noticeable by an observer standing close to the patient. At 350-400 ppb, the odour is noticeable by an observer standing several feet away from the patient. Those subjects with breath scores of greater than 200 ppb on two separate visits were recruited for the study (n=13). Each signed an Informed Consent under a protocol approved by the Otago Ethics Committee. Subject's upon their second positive visit undertook a mechanical and chemical treatment of their mouths at the laboratory. This consisted of teeth and tongue brushing (2 minutes with Colgate Total™ [0.3% w/v triclosan], Colgate-Palmolive, N.Y., USA), tongue scraping for 30 seconds, brushing teeth and tongue with a CHX gel (Colgate, Australia) (Perioguard 2.0% CHX mouth gel, 2 minutes) and followed by a 30 second CHX rinse (0.2% CHX, 10% ethanol alcohol). This was followed at intervals by the sucking of a lozenge (BLIS Technologies Limited, Wellington, New Zealand) (commencing 2 hours after treatment and typically 2 hours apart, 4 times daily), each containing>1×10^9 colony forming units of streptomycin-resistant S. salivarius K12. […]

Values joined by “and” are separate entries in the source; they are usually repeats but may differ in a detail not shown here. Equal entries are not always repeated.

In the case of `[H]/N=C(\N/C(=N/[H])NCCCCCCNC(=N)NC(=N)Nc1ccc(Cl)cc1)Nc1ccc(Cl)cc1` [CHX, chlorhexidine], the “Post CHX treatment Saliva organoleptic” value in the test on halitosis subjects [1] was 2 and 3. The “change in VSC, organoleptic or BANA readings after treatment with CHX only” value in the test with halitosis subjects [2] is “no decrease”.
